Structures are written as SMILES.

One series deals with T1, RAR beta (Homo sapiens, UniProt P10826).
T1 sequence (P10826 183-417 limits assumed): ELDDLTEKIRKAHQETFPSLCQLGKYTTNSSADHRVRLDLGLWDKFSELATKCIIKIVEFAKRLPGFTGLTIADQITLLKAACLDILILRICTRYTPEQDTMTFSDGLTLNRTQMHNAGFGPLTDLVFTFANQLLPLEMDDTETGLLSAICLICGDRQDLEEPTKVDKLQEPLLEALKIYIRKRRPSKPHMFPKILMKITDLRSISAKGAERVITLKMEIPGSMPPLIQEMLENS
Kind of series: Transactivation test (Kd apparent), RAR beta. Conditions: HeLa cells stably transfected with ERE-βGlob-Luc-SV-Neo reporter and RAR β ER-DBD-puro; luciferase; Schild regression vs reference antagonist; read-out: RAR beta Kd app. The format is cell-based. The protocol: (§1) The compounds according to the invention have activating properties on RAR-type receptors. This RAR-receptor-activating activity is measured in a test of transactivation by means of the dissociation constant Kdapp (apparent).
(§2) The activation of receptors with an agonist (activator) in HeLa cells leads to the expression of a reporter gene, luciferase, which, in the presence of a substrate, generates light. The activation of the receptors may thus be measured by quantifying the luminescence produced after incubating the cells in the presence of a reference agonist. The activating products displace the agonist from its site, thus preventing activation of the receptor. The activity is measured by quantifying the decrease in light produced. This measurement makes it possible to determine the activating activity of the compounds according to the invention.
(§3) In this study, a constant is determined which represents the affinity of the molecule for the receptor. Since this value can fluctuate depending on the basal activity and the expression of the receptor, it is referred to as the Kd apparent (KdApp).
(§4) To determine this constant, the cells are brought into contact with a concentration of the test product and a concentration of the reference antagonist, 4-(5,5-dimethyl-8-p-tolyl-5,6-dihydro-2-naphthalen-2-ylethynyl)benzoic acid. Measurements are also taken for the total agonist (4-[2-(5,5,8,8-tetramethyl-5,6,7,8-tetrahydro-2-naphthyl)propenyl]benzoic acid) and inverse agonist, 4-{(E)-3-[4-(4-tert-butylphenyl)-5,5,8,8-tetramethyl-5,6,7,8-tetrahydro-2-naphthyl]-3-oxopropenyl}benzoic acid, controls.
(§5) These crossed curves make it possible to determine the AC50 values (concentration at which 50% activation is observed) for the reference ligand at various concentrations of test product. These AC50 values are used to calculate the Schild regression by plotting a straight line corresponding to the Schild equation (“Quantitation in Receptor Pharmacology” Terry P. Kenakin, Receptors and Channels, 2001, 7, 371-385).
(§6) In the case of an agonist, an AC50 value (concentration that gives 50% of the activity) is calculated by plotting the curve of the product at the concentration of the reference ligand that gives 80% activation.
(§7) The HeLa cell lines used are stable transfectants containing the plasmids ERE-βGlob-Luc-SV-Neo (reporter gene) and RAR (α, β, γ) ER-DBD-puro. These cells are inoculated into 96-well plates at a rate of 10,000 cells per well in 100 μl of DMEM medium without phenol red, and supplemented with 10% defatted calf serum. The plates are then incubated at 37° C. and 7% CO2 for 4 hours.
(§8) The various dilutions of the test products, of the reference ligand (4-(5,5-dimethyl-8-p-tolyl-5,6-dihydro-2-naphthalen-2-ylethynyl)benzoic acid), of the 100% control (100 nM 4-[2-(5,5,8,8-tetramethyl-5,6,7,8-tetrahydro-2-naphthyl)propenyl]benzoic acid) and of the 0% control (500 nM 4-{(E)-3-[4-(4-tert-butylphenyl)-5,5,8,8-tetramethyl-5,6,7,8-tetrahydro-2-naphthyl]-3-oxopropenyl}benzoic acid) are added at a rate of 5 μl per well. The plates are then incubated for 18 hours at 37° C. and 7% CO2.
(§9) The culture medium is removed by turning over and 100 μl of a 1:1 PBS/luciferin mixture is added to each well. After 5 minutes, the plates are read using the luminescence reader.

The next series concerns the target T2, RAR gamma (Homo sapiens, UniProt P13631).
T2 sequence (P13631 185-454 limits assumed): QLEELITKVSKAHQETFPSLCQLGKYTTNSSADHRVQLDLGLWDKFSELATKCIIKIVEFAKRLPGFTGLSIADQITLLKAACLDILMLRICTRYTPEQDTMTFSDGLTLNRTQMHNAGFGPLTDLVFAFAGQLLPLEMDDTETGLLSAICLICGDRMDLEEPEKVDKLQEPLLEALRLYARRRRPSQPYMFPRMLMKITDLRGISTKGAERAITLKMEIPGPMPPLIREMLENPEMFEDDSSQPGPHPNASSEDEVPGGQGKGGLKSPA
Kind of series: Transactivation test (Kd apparent), RAR gamma. It is filed as cell-based. Conditions: HeLa cells stably transfected with ERE-βGlob-Luc-SV-Neo reporter and RAR γ ER-DBD-puro; luciferase; Schild regression vs reference antagonist; read-out: RAR gamma Kd app. The protocol:
as §1, §2, §3, §4, §5, §6, §7, §8, §9

Another series has as its target T3, RAR alpha (Homo sapiens, UniProt P10276).
T3 sequence (P10276 183-417 limits assumed): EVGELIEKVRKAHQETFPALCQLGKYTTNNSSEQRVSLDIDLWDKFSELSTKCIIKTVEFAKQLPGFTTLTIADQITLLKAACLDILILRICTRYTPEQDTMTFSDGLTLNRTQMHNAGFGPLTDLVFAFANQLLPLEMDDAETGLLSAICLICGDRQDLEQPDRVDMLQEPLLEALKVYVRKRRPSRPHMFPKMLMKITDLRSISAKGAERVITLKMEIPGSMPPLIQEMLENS
Kind of series: Transactivation test (Kd apparent), RAR alpha. Conditions: HeLa cells stably transfected with ERE-βGlob-Luc-SV-Neo reporter and RAR α ER-DBD-puro; luciferase; Schild regression vs reference antagonist; read-out: RAR alpha KD app. The format is cell-based. The protocol:
as §1, §2, §3, §4, §5, §6, §7, §8, §9

With `CC(C)NCCCCOc1ccc(-c2ccc(C(=O)O)cc2)cc1-c1ccc2c(c1)C(C)(C)CCC2(C)C` [Compound 1, 4′-(4-Isopropylaminobutoxy)-3′-(5,5,8,8-tetramethyl-5,6,7,8-tetrahydronaphth-2-yl)biphenyl-4-carboxylic acid], the Kd at RAR beta came out at 500 nM; at RAR gamma it was 15 nM; on RAR alpha it was 1000 nM.
As to `CC(C)NCCOc1ccc(-c2ccc(C(=O)O)cc2)cc1-c1ccc2c(c1)C(C)(C)CCC2(C)C` [Compound 12, 4′-(2-Isopropylaminoethoxy)-3′-(5,5,8,8-tetramethyl-5,6,7,8-tetrahydronaphth-2-yl)biphenyl-4-carboxylic acid], the Kd on RAR beta amounted to 4000 nM; on RAR gamma, 120 nM.
`CCOC(=O)c1ccc(-c2ccc(OCCCNC3CC3)c(-c3ccc4c(c3)C(C)(C)CCC4(C)C)c2)cc1` [Compound 50, Ethyl 4′-(3-cyclopropylaminopropoxy)-3′-(5,5,8,8-tetramethyl-5,6,7,8-tetrahydronaphth-2-yl)biphenyl-4-carboxylate] displayed a melting point of 141 °C.
`CCCCNCCCOc1ccc(-c2ccc(C(=O)OCC)cc2)cc1-c1ccc2c(c1)C(C)(C)CCC2(C)C` [Compound 52, Ethyl 4′-(3-butylaminopropoxy)-3′-(5,5,8,8-tetramethyl-5,6,7,8-tetrahydronaphth-2-yl)biphenyl-4-carboxylate]: the melting point turned out to be 175 °C.
In turn, `CCCNCCCOc1ccc(-c2ccc(C(=O)OCC)cc2)cc1-c1ccc2c(c1)C(C)(C)CCC2(C)C` [Compound 56, Ethyl 4′-(3-propylaminopropoxy)-3′-(5,5,8,8-tetramethyl-5,6,7,8-tetrahydronaphth-2-yl)biphenyl-4-carboxylate] came in with a melting point of 120 °C.
Turning to `CC1(C)CCC(C)(C)c2cc(-c3cc(-c4ccc(C(=O)O)cc4)ccc3OCCCCNC3CC3)ccc21` [Compound 59, 4′-(4-Cyclopropylaminobutoxy)-3′-(5,5,8,8-tetramethyl-5,6,7,8-tetrahydronaphth-2-yl)biphenyl-4-carboxylic acid], the Kd at RAR beta was 4000 nM; on RAR gamma, 1000 nM; on RAR alpha it was 8000 nM.
In turn, `CCOC(=O)c1ccc(-c2ccc(OCCCNC)c(-c3ccc4c(c3)C(C)(C)CCC4(C)C)c2)cc1` [Compound 60, Ethyl 4′-(3-methylaminopropoxy)-3′-(5,5,8,8-tetramethyl-5,6,7,8-tetrahydronaphth-2-yl)biphenyl-4-carboxylate] displayed a melting point of 141 °C.
For `CNCCCOc1ccc(-c2ccc(C(=O)O)cc2)cc1-c1ccc2c(c1)C(C)(C)CCC2(C)C` [Compound 61, 4′-(3-Methylaminopropoxy)-3′-(5,5,8,8-tetramethyl-5,6,7,8-tetrahydronaphth-2-yl)biphenyl-4-carboxylic acid], the Kd on RAR gamma turned out to be 30 nM.
The compound `CCNCCCOc1ccc(-c2ccc(C(=O)OCC)cc2)cc1-c1ccc2c(c1)C(C)(C)CCC2(C)C` [Compound 62, Ethyl 4′-(3-ethylaminopropoxy)-3′-(5,5,8,8-tetramethyl-5,6,7,8-tetrahydronaphth-2-yl)biphenyl-4-carboxylate] registered a melting point of 148 °C.
For the compound `CCNCCCOc1ccc(-c2ccc(C(=O)O)cc2)cc1-c1ccc2c(c1)C(C)(C)CCC2(C)C` [Compound 63, 4′-(3-Ethylaminopropoxy)-3′-(5,5,8,8-tetramethyl-5,6,7,8-tetrahydronaphth-2-yl)biphenyl-4-carboxylic acid], on RAR gamma, the Kd amounted to 250 nM.
Same read-out and setting: with `CC1(C)CCC(C)(C)c2cc(-c3cc(-c4ccc(C(=O)O)cc4)ccc3OCCCN)ccc21` [Compound 65, 4′-(3-Aminopropoxy)-3′-(5,5,8,8-tetramethyl-5,6,7,8-tetrahydronaphth-2-yl)biphenyl-4-carboxylic acid] the figure was 8 nM.
As for `CC1(C)CCC(C)(C)c2cc(-c3cc(-c4ccc(C(=O)O)cc4)ccc3OCCNC3CC3)ccc21` [Compound 67, 4′-(2-Cyclopropylaminoethoxy)-3′-(5,5,8,8-tetramethyl-5,6,7,8-tetrahydronaphth-2-yl)biphenyl-4-carboxylic acid], the Kd at RAR beta turned out to be 60 nM; at RAR gamma, 4 nM; on RAR alpha, 1000 nM.
Turning to `CC1(C)CCC(C)(C)c2cc(-c3cc(-c4ccc(C(=O)O)cc4)ccc3OCCCCCNC3CC3)ccc21` [Compound 69, 4′-(5-Cyclopropylaminopentyloxy)-3′-(5,5,8,8-tetramethyl-5,6,7,8-tetrahydronaphth-2-yl)biphenyl-4-carboxylic acid], the Kd worked out at 500 nM on RAR beta, 250 nM at RAR gamma and 2000 nM on RAR alpha.
Turning to `CC1(C)CCC(C)(C)c2cc(-c3cc(-c4ccc(C(=O)O)cc4)ccc3OCCCCCN)ccc21` [Compound 73, 4′-(5-Aminopentyloxy)-3′-(5,5,8,8-tetramethyl-5,6,7,8-tetrahydronaphth-2-yl)biphenyl-4-carboxylic acid], the Kd was found to be 2000 nM at RAR beta, 120 nM on RAR gamma and 2000 nM on RAR alpha.
As to `CC1(C)CCC(C)(C)c2cc(-c3cc(-c4ccc(C(=O)O)cc4)ccc3OCCCCN)ccc21` [Compound 75, 4′-(4-Aminobutoxy)-3′-(5,5,8,8-tetramethyl-5,6,7,8-tetrahydronaphth-2-yl)biphenyl-4-carboxylic acid], the Kd on RAR beta was 2000 nM; on RAR gamma, 60 nM; at RAR alpha, 8000 nM.

Usually melting point stands for the temperature, or range, at which the solid turns liquid.

The values are drawn from patent US7872026B2, “Ligand activators of the RAR receptors and pharmaceutical/cosmetic applications thereof” (Galderma Research & Development, priority 2003, dated 2011).
